PMC5951806, “Rapid labelling and covalent inhibition of intracellular native proteins using ligand-directed N-acyl-N-alkyl sulfonamide” (Nature Communications, 2018)

How the values were obtained:
[1] = test system: immunoglobulin gamma-1 heavy chain; test: TMT LC-MSMS of 11-labelled proteins; type: cell-based, Homo sapiens
Description: Supplement 41467_2018_4343_MOESM4_ESM.xlsx, sheet "Exp3" | column: Abundance Ratio: (11) / (11 with PU-H71); Abundance Ratio: (11) / (DMSO); Abundances (Grouped): 11; Abundances (Grouped): 11 with PU-H71

endogenous Hsp90 = test: Chemical labelling of endogenous Hsp90 in SKBR3 cells (in-gel fluorescence); type: cell-based, human; conditions: 3 h
[2] = test system: immunoglobulin gamma-1 heavy chain; test: TMT LC-MSMS of 11-labelled proteins; type: cell-based, Homo sapiens; remark: listed apart in the source
Description: (§1) Supplement 41467_2018_4343_MOESM4_ESM.xlsx, sheet "Exp2" | column: Abundance Ratio: (11) / (11 with PU-H71); Abundance Ratio: (11) / (DMSO); Abundances (Grouped): 11; Abundances (Grouped): 11 with PU-H71

[3] = target: Dolichyl-diphosphooligosaccharide--protein glycosyltransferase subunit 1 (RPN1) (Homo sapiens, UniProt P04843); test: TMT LC-MSMS of 11-labelled proteins; type: cell-based
Chain of Dolichyl-diphosphooligosaccharide--protein glycosyltransferase subunit 1 (RPN1) (P04843 24-607): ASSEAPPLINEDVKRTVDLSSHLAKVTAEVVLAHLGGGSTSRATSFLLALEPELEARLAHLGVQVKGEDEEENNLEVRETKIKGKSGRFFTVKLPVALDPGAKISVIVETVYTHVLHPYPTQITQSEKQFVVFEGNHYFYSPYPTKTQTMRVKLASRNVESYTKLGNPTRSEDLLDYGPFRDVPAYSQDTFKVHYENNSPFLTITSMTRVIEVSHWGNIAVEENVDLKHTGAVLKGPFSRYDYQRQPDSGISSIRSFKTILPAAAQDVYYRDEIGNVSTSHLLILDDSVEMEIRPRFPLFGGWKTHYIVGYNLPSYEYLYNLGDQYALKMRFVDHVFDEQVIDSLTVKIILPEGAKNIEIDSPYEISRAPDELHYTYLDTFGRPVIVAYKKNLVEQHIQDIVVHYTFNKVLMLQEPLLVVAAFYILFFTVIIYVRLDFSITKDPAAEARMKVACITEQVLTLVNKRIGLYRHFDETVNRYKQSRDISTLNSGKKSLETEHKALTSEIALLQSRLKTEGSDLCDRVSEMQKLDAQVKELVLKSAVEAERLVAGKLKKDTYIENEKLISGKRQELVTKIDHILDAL
Chain of Dolichyl-diphosphooligosaccharide--protein glycosyltransferase subunit 1 (RPN1) (P39656 43-456 partner): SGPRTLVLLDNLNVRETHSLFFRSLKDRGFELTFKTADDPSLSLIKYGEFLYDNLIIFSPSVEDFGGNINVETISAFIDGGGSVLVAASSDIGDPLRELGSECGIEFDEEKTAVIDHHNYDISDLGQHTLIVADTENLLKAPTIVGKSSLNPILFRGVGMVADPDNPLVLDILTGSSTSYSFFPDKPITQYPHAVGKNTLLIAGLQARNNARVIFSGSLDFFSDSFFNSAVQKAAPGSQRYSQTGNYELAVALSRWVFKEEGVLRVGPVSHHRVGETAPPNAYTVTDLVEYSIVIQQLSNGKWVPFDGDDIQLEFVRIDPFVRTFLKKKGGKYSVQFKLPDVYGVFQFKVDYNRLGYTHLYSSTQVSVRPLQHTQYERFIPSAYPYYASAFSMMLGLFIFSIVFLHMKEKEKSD
Chain of Dolichyl-diphosphooligosaccharide--protein glycosyltransferase subunit 1 (RPN1) (P04844 23-631 partner): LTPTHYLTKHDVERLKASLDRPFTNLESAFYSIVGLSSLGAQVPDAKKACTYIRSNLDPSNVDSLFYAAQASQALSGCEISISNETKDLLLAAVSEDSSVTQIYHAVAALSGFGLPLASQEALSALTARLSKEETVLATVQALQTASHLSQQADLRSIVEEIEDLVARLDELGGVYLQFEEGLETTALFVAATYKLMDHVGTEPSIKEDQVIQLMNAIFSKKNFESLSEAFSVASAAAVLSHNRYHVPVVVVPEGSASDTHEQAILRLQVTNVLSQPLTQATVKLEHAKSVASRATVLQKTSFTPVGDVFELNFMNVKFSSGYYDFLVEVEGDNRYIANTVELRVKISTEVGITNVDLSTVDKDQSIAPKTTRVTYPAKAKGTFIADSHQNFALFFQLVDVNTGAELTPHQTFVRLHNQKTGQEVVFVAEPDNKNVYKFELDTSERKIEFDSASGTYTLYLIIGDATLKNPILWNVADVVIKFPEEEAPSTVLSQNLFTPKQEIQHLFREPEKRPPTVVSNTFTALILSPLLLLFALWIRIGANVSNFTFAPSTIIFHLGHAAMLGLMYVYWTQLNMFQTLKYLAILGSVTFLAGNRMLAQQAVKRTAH
Chain of Dolichyl-diphosphooligosaccharide--protein glycosyltransferase subunit 1 (RPN1) (P61803 whole entry partner): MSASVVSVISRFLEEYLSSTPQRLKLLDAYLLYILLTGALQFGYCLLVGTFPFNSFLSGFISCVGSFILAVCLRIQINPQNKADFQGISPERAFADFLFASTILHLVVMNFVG
Chain of Dolichyl-diphosphooligosaccharide--protein glycosyltransferase subunit 1 (RPN1) (P61165 whole entry partner): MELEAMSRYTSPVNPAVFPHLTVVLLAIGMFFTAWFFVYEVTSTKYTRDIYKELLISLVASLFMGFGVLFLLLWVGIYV
Chain of Dolichyl-diphosphooligosaccharide--protein glycosyltransferase subunit 1 (RPN1) (P0C6T2 whole entry partner): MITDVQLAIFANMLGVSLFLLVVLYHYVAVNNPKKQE
Description: as §1

Alpha-actinin-4 (ACTN4) = Alpha-actinin-4 (ACTN4) (Homo sapiens, UniProt O43707); test: TMT LC-MSMS of 11-labelled proteins; type: cell-based
Chain of Alpha-actinin-4 (ACTN4) (O43707 whole entry): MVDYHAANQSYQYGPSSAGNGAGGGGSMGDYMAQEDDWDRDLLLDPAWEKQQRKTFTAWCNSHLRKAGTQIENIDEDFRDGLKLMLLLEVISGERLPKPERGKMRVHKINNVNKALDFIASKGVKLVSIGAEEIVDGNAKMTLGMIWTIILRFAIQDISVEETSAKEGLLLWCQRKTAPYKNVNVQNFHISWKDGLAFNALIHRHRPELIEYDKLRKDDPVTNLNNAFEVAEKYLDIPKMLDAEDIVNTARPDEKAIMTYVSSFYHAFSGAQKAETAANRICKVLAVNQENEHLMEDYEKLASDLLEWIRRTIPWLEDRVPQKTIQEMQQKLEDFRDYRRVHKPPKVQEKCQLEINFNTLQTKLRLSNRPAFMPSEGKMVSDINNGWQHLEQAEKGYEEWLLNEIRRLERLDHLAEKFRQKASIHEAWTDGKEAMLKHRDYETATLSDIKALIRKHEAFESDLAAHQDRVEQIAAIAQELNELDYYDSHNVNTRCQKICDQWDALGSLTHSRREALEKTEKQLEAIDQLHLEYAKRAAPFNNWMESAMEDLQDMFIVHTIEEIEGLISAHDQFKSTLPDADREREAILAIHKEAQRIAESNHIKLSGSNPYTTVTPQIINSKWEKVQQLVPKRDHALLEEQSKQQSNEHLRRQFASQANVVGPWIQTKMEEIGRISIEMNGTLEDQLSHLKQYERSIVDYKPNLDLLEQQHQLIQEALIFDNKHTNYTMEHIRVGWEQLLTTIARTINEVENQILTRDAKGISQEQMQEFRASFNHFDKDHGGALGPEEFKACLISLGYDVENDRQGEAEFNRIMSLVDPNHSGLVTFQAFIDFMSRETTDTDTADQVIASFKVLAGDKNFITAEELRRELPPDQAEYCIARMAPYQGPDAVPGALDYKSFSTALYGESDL
Description: as §1

[4] = target: Hemoglobin subunit alpha (HBA2; HBA1) (Homo sapiens, UniProt P69905); test: TMT LC-MSMS of 11-labelled proteins; type: cell-based
Chain of Hemoglobin subunit alpha (HBA2; HBA1) (P69905 2-142 limits assumed): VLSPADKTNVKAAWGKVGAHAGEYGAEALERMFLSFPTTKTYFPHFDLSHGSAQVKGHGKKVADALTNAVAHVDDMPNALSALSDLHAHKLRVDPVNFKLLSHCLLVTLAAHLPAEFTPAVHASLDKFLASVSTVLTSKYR
Description: as §1

[5] = target: T1, Phosphate carrier protein, mitochondrial (SLC25A3) (Homo sapiens, UniProt Q00325); test: TMT LC-MSMS of 11-labelled proteins; type: cell-based
T1 sequence (Q00325 50-362): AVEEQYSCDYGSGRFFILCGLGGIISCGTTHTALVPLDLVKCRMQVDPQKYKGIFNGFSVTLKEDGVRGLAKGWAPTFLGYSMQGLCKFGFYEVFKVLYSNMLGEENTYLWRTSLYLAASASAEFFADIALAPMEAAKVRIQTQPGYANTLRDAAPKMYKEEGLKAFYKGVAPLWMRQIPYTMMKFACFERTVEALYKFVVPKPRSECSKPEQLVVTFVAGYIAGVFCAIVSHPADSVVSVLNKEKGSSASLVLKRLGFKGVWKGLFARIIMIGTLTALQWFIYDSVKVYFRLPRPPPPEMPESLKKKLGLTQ
Description: as §1

protein MAL2 (MAL2) = protein MAL2 (MAL2) (Homo sapiens, UniProt Q969L2); test: TMT LC-MSMS of 11-labelled proteins; type: cell-based
Chain of protein MAL2 (MAL2) (Q969L2 whole entry): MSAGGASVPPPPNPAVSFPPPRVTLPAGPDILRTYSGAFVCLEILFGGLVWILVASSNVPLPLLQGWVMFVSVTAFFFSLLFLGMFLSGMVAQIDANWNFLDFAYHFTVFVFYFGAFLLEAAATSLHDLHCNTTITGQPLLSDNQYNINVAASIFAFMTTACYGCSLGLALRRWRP
Description: as §1

[6] = target: T2, Monocarboxylate transporter 4 (SLC16A3) (Homo sapiens, UniProt O15427); test: TMT LC-MSMS of 11-labelled proteins; type: cell-based
T2 sequence (O15427 1-465): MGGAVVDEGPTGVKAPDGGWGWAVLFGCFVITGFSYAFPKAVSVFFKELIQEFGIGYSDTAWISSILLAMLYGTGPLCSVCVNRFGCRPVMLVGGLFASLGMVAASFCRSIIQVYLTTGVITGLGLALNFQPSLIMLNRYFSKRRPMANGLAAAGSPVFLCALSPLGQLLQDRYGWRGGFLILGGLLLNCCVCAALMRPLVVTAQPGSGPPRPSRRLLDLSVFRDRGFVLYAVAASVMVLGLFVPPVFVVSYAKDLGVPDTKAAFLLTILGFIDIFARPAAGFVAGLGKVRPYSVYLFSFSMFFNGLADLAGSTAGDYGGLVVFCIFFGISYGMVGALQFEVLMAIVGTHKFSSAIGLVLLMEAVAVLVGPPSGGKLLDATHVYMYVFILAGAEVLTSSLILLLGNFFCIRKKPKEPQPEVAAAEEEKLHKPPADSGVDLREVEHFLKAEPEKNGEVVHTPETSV
Description: as §1

Compound: CC(=O)Oc1ccc2c(c1)Oc1cc(OC(C)=O)ccc1C21OC(=O)c2cc(C(=O)NCCOCCOCCNC(=O)CCCC(=O)N(CC#N)S(=O)(=O)c3ccc(C(=O)NCCCn4c(Sc5cc6c(cc5I)OCO6)nc5c(N)ncnc54)cc3)ccc21 [compound 11]
- Abundance Ratio: (11) / (11 with PU-H71) ([1]; Exp3): 0.809
- Abundance Ratio: (11) / (DMSO) ([1]; Exp3): 0.806
- Abundances (Grouped): 11 ([1]; Exp3): 6402
- Abundances (Grouped): 11 with PU-H71 ([1]; Exp3, with PU-H71): 7910.4
- unspecific reaction at high concentrations (endogenous Hsp90; 1–10 µM, 37 °C): No increase in unspecific
- endogenous Hsp90 labelling (endogenous Hsp90; up to ~10 µM): labelled endogenous Hsp90 (both α and β isoforms)
- Abundance Ratio: (11) / (11 with PU-H71) ([2]; sheet Exp2): 0.821
- Abundance Ratio: (11) / (DMSO) ([2]; sheet Exp2): 0.807
- Abundances (Grouped): 11 ([2]; sheet Exp2): 7483.9
- Abundances (Grouped): 11 with PU-H71 ([2]; sheet Exp2, with PU-H71): 9110.6
- Abundance Ratio: (11) / (11 with PU-H71) ([3]; sheet Exp2): 0.909
- Abundance Ratio: (11) / (DMSO) ([3]; sheet Exp2): 2.785
- Abundances (Grouped): 11 ([3]; sheet Exp2): 47.9
- Abundances (Grouped): 11 with PU-H71 ([3]; sheet Exp2, with PU-H71): 52.7
- Abundance Ratio: (11) / (11 with PU-H71) (Alpha-actinin-4 (ACTN4); sheet Exp2): 0.876
- Abundance Ratio: (11) / (DMSO) (Alpha-actinin-4 (ACTN4); sheet Exp2): 1.667
- Abundances (Grouped): 11 (Alpha-actinin-4 (ACTN4); sheet Exp2): 24
- Abundances (Grouped): 11 with PU-H71 (Alpha-actinin-4 (ACTN4); sheet Exp2, with PU-H71): 27.4
- Abundance Ratio: (11) / (11 with PU-H71) ([4]; sheet Exp2): 0.752
- Abundance Ratio: (11) / (DMSO) ([4]; sheet Exp2): 2.578
- Abundances (Grouped): 11 ([4]; sheet Exp2): 76.3
- Abundances (Grouped): 11 with PU-H71 ([4]; sheet Exp2, with PU-H71): 101.4
- Abundance Ratio: (11) / (11 with PU-H71) ([5]; sheet Exp2): 0.7
- Abundance Ratio: (11) / (DMSO) ([5]; sheet Exp2): 2.264
- Abundances (Grouped): 11 ([5]; sheet Exp2): 124.5
- Abundances (Grouped): 11 with PU-H71 ([5]; sheet Exp2, with PU-H71): 177.9
- Abundance Ratio: (11) / (11 with PU-H71) (protein MAL2 (MAL2); sheet Exp2): 0.886
- Abundance Ratio: (11) / (DMSO) (protein MAL2 (MAL2); sheet Exp2): 3.449
- Abundances (Grouped): 11 (protein MAL2 (MAL2); sheet Exp2): 114.5
- Abundances (Grouped): 11 with PU-H71 (protein MAL2 (MAL2); sheet Exp2, with PU-H71): 129.3
- Abundance Ratio: (11) / (11 with PU-H71) ([6]; sheet Exp2): 0.892
- Abundance Ratio: (11) / (DMSO) ([6]; sheet Exp2): 8.305
- Abundances (Grouped): 11 ([6]; sheet Exp2): 225.9
- Abundances (Grouped): 11 with PU-H71 ([6]; sheet Exp2, with PU-H71): 253.2
